pIC50, pKi: −log10 of the molar value. Blank lines part the entries; values can stand above or below the molecule they belong to.
How the values were obtained:
[1] = molecular target: T1, Angiotensin-converting enzyme (Homo sapiens, UniProt P12821); experiment: Inhibition of angiotensin-converting enzyme (unknown origin)
[2] = Inhibition of farnesyltransferase (unknown origin); design: species or system Homo sapiens
B2 bradykinin receptor [3] = molecular target: T2, B2 bradykinin receptor (Homo sapiens, UniProt P30411); experiment: Antagonist potency at B2 bradykinin receptor (unknown origin); conditions: read-out: pA2 (converted)
T2 sequence (P30411 whole entry): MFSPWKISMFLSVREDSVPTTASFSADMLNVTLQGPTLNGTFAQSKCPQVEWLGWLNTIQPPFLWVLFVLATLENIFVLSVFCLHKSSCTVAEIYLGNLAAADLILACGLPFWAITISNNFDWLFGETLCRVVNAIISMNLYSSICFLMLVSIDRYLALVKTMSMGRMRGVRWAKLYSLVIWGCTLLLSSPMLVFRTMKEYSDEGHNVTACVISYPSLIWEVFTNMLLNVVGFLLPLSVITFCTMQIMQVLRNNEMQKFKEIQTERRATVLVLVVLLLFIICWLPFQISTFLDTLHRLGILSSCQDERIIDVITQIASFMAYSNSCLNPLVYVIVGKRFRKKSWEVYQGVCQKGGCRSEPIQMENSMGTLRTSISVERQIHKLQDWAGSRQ

B2 bradykinin receptor [4] = molecular target: T2, B2 bradykinin receptor; experiment: Binding affinity to B2 bradykinin receptor (unknown origin); conditions: for Ki: read-out: pKi (converted); for pKi: read-out: Ki
[5] = molecular target: T1, Angiotensin-converting enzyme; experiment: Binding affinity to angiotensin-converting enzyme (unknown origin) assessed as inhibition constant
Neprilysin = Neprilysin (Homo sapiens, UniProt P08473); experiment: Binding affinity to neutral endopeptidase (unknown origin) assessed as inhibition constant
Substance-P receptor = Substance-P receptor (Homo sapiens, UniProt P25103); experiment: Inhibition of [3H]SP binding to human neurokinin receptor 1 expressed in CHO cells; type: cell-based

pIC50 [1]: 8.38
SMILES: CCOC(=O)[C@H](CCc1ccccc1)N[C@@H](C)C(=O)N1[C@H](C(=O)O)C[C@@H]2CCC[C@@H]21

pIC50 [2]: 9.22
SMILES: CSCC[C@H](NC(=O)[C@@H]1Cc2ccccc2CN1C(=O)[C@@H](NC[C@@H](N)CS)C(C)C)C(=O)O

pIC50 [2]: 4.00
SMILES: CSCC[C@H](NC(=O)[C@H]1Cc2ccccc2CN1C(=O)[C@@H]1CCCN1C(=O)[C@H](CS)NC(=O)[C@@H](N)CCCCN)C(=O)O

Kb (B2 bradykinin receptor [3]): 2510 nM
Ki (B2 bradykinin receptor [4]): 316 nM
SMILES: N=C(N)NCCC[C@@H](N)C(=O)N[C@@H](CCCNC(=N)N)C(=O)N1CCC[C@H]1C(=O)N1C[C@H](O)C[C@H]1C(=O)NCC(=O)N[C@@H](Cc1cccs1)C(=O)N[C@@H](CO)C(=O)N[C@@H]1Cc2ccccc2CN(CC(=O)N[C@@H](CCCNC(=N)N)C(=O)O)C1=O

pKi [5]: 4.30
pKi (Neprilysin): 6.48
SMILES: CC(C)C[C@@H](C(=O)O)N1CCO[C@@H](c2ccccc2)[C@H](NC(=O)[C@@H](S)Cc2ccccc2)C1=O

pKi (Substance-P receptor): 6.12
SMILES: CC(=O)NC1(C(=O)OCc2cc(C(F)(F)F)cc(C(F)(F)F)c2)CCc2[nH]c3ccccc3c2C1 (centres undefined)

Kb (B2 bradykinin receptor [3]): 3160 nM
Ki (B2 bradykinin receptor [4]): 25.1 nM
SMILES: N=C(N)NCCC[C@@H](N)C(=O)N[C@@H](CCCNC(=N)N)C(=O)N1CCC[C@H]1C(=O)N1C[C@H](O)C[C@H]1C(=O)NCC(=O)N[C@@H](Cc1cccs1)C(=O)N[C@@H](CO)C(=O)N1CCC[C@]12Cc1ccccc1CN(CC(=O)N[C@@H](CCCNC(=N)N)C(=O)O)C2=O

pIC50 [1]: 7.36
SMILES: C[C@H](N[C@@H](CCc1ccccc1)C(=O)O)C(=O)N1Cc2ccccc2[C@H]1C(=O)O

Kb (B2 bradykinin receptor [3]): 2000 nM
Ki (B2 bradykinin receptor [4]): 3.16 nM
SMILES: N=C(N)NCCC[C@@H](N)C(=O)N[C@@H](CCCNC(=N)N)C(=O)N1CCC[C@H]1C(=O)N1C[C@H](O)C[C@H]1C(=O)NCC(=O)N[C@@H](Cc1cccs1)C(=O)N[C@@H](CO)C(=O)N1CCC[C@@]12Cc1ccccc1CN(CC(=O)N[C@@H](CCCNC(=N)N)C(=O)O)C2=O

pIC50 [2]: 9.43
SMILES: CSCC[C@H](NC(=O)[C@@H]1Cc2ccccc2CN1C[C@@H](NC(=O)[C@@H](N)CS)C(C)C)C(=O)O

Kb (B2 bradykinin receptor [3]): 2510 nM
pKi (B2 bradykinin receptor [4]): 6.24
SMILES: N=C(N)NCCC[C@@H](N)C(=O)N[C@@H](CCCNC(=N)N)C(=O)N1CCC[C@H]1C(=O)N1C[C@H](O)C[C@H]1C(=O)NCC(=O)N[C@@H](Cc1cccs1)C(=O)N[C@@H](CO)C(=O)N1Cc2ccccc2C[C@@H]1C(=O)N1Cc2ccccc2C[C@@H]1C(=O)N[C@@H](CCCNC(=N)N)C(=O)O

pKi (Substance-P receptor): 6.70
SMILES: CC(C)C[C@H](NC(=O)CNC(=O)OCc1ccccc1)C(=O)NC1(C(=O)OCc2cc(C(F)(F)F)cc(C(F)(F)F)c2)CNc2[nH]c3ccccc3c2C1 (some centres undefined)

pKi (Neprilysin): 9.40
SMILES: CC(C)C[C@@H](C(=O)O)N1Cc2ccccc2C[C@H](NC(=O)[C@@H](S)Cc2ccccc2)C1=O

Ki (B2 bradykinin receptor [4]): 200 nM
SMILES: N=C(N)NCCC[C@@H](N)C(=O)N[C@@H](CCCNC(=N)N)C(=O)N1CCC[C@H]1C(=O)N1C[C@H](O)C[C@H]1C(=O)NCC(=O)N[C@@H](Cc1cccs1)C(=O)N[C@@H](CO)C(=O)N[C@H]1Cc2ccccc2CN(CC(=O)N[C@@H](CCCNC(=N)N)C(=O)O)C1=O

pKi [5]: 11.40
pKi (Neprilysin): < 8.00
SMILES: O=C(O)[C@H](CCc1ccccc1)N[C@H]1Cc2ccccc2[C@H]2CCC[C@@H](C(=O)O)N2C1=O

Kb (B2 bradykinin receptor [3]): 3980 nM
pKi (B2 bradykinin receptor [4]): 6.06
SMILES: N=C(N)NCCC[C@@H](N)C(=O)N[C@@H](CCCNC(=N)N)C(=O)N1CCC[C@H]1C(=O)N1C[C@H](O)C[C@H]1C(=O)NCC(=O)N[C@@H](Cc1cccs1)C(=O)N[C@H]1CSSC[C@@H](C(=O)N[C@@H](CCCNC(=N)N)C(=O)O)NC(=O)[C@H](Cc2ccccc2)NC(=O)[C@H](Cc2ccccc2)NC1=O

Kb (B2 bradykinin receptor [3]): 0.398 nM
pKi (B2 bradykinin receptor [4]): 9.74
SMILES: N=C(N)NCCCC(NC(=O)[C@@H]1C[C@@H]2CCC[C@@H]2N1C(=O)[C@H]1Cc2ccccc2CN1C(=O)[C@H](CO)NC(=O)[C@H](Cc1cccs1)NC(=O)CNC(=O)[C@@H]1C[C@@H](O)CN1C(=O)[C@@H]1CCCN1C(=O)[C@H](CCCNC(=N)N)NC(=O)[C@H](N)CCCNC(=N)N)C(=O)O (some centres undefined)

pIC50 [2]: 7.70
SMILES: CSCC[C@H](NC(=O)[C@@H]1Cc2ccccc2CN1C(=O)[C@@H](NC(=O)[C@H](CS)NC(=O)[C@@H](N)CCCCN)C(C)C)C(=O)O

pKi (Substance-P receptor): 7.20
SMILES: CC(C)C[C@H](NC(=O)CNC(=O)OCc1ccccc1)C(=O)N1Cc2[nH]c3ccccc3c2C[C@H]1C(=O)OCc1cc(C(F)(F)F)cc(C(F)(F)F)c1

Ki (B2 bradykinin receptor [4]): 501 nM
SMILES: C[C@H](C(=O)N[C@@H](CCCNC(=N)N)C(=O)O)N1Cc2ccccc2C[C@@H](NC(=O)[C@H](CO)NC(=O)[C@H](Cc2ccccc2)NC(=O)CNC(=O)[C@@H]2CCCN2C(=O)[C@@H]2CCCN2C(=O)[C@@H](N)CCCNC(=N)N)C1=O

SMILES: O=C(O)CN1Cc2ccccc2C[C@H](N[C@@H](CCc2ccccc2)C(=O)O)C1=O
pKi [5]: 8.00
